From patent publication US20250188057A1, “NON-AROMATIC CYCLIC-PYRIMIDINE ANALOGS AS GLUCOSYLCERAMIDE SYNTHASE INHIBITORS” (Merck Sharp & Dohme LLC, priority 2022, published 2025) come the findings set out here.

glucosylceramide synthase (GCS), sequence (Q16739 whole entry): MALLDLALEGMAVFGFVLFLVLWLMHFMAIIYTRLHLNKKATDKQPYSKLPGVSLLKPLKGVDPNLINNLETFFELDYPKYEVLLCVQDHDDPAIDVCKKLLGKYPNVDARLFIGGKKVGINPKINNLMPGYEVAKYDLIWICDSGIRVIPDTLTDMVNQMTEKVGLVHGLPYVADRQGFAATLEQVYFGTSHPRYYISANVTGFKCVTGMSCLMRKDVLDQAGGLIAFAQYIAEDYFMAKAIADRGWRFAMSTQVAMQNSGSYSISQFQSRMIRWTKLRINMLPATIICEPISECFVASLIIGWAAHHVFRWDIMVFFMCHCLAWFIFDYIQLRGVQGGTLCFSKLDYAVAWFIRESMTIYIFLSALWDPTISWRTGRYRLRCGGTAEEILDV

The assay addresses glucosylceramide synthase (GCS) (Homo sapiens (Human), UniProt Q16739). As to the kind of experiment: UDP-Glo glucosylceramide synthase biochemical assay. The following applies: endogenous GCS in Golgi preparations isolated from human A375 malignant melanoma skin cells; UDP detection by luminescence. The source says: A UDP-Glo™ glucosylceramide synthase biochemical assay was utilized to evaluate the effect of test compounds on the activity of endogenous levels of GCS enzyme contained within Golgi preparations isolated from human A375 malignant melanoma skin cells. The UDP-Glo™ glucosylceramide synthase assay uses UDP-Glucose as a nucleotide-glycosyl donor and ceramide as substrate acceptor molecules. In the reaction, glucosylceramide synthase (GCS) transfers glucose from UDP-Glucose to ceramide. Glucosylceramide and UDP are released as products.
Using Promega's UDP-Glo™ Glycosyltransferase assay kit (Promega Corporation, Madison, WI, USA (Promega)), GCS activity was indirectly measured by detecting the amount of UDP produced. An aliquot of GCS enzyme (1.5 μg crude golgi preparation, total protein) and titrated test compound were aliquoted to each well and incubated for 30 minutes at room temperature. […] An equivalent volume of substrate mixture was then added to each well. Following a 20 h incubation at room temperature to allow for GCS turnover of substrate, an equal volume of UDP detection reagent (Promega) was added to each well and incubated for an additional 75 minutes at room temperature to simultaneously convert the accumulated UDP product into ATP and generate light in a luciferase reaction. The generated light was detected using a luminometer. […] luminescence values (RLUs) were normalized to mean “min” and “max” effects, as determined on each plate. “Min” was defined as the mean of the values of the wells treated with vehicle (DMSO) and which represent 0% inhibition; “max” was defined as the mean of the values of the wells treated with a reference inhibitor and which represent the 100% effect. Values for % Emax and EC50 were determined by best-fitting the normalized data to a curve in Activity Base along a four-parameter logistic nonlinear regression (4PL) model (based on the Levenberg-Marquardt algorithm and defined by the equation below): […]
where: n is 4PMin (bottom of the curve); m is 4PMax (top of the curve); i is IP (inflection point of curve); and p is slope. See Levenberg, K., “A Method for the Solution of Certain Problems in Least Squares”, Quart. Appl. Math. 2, (1944), pp 164-168 and Marquardt, D., “An Algorithm for Least Squares Estimation on Nonlinear Parameters”, SIAM J. Appl. Math 11, (1963) pp 431-441.
For `Cc1cc(N2CC[C@H](COc3nc(C4CC4)ncc3C#N)C2)ncc1F` [Compound 30, (S)-2-cyclopropyl-4-((1-(5-fluoro-4-methylpyridin-2-yl)pyrrolidin-3-yl)methoxy)pyrimidine-5-carbonitrile], the IC50 is 1.24 µM.

`N#Cc1cnc(C2CC2)nc1OC[C@H]1CCN(c2ccc(-n3ccnc3)cc2)C1` [Compound 31, (S)-4-((1-(4-(1H-imidazol-1-yl)phenyl)pyrrolidin-3-yl)methoxy)-2-cyclopropylpyrimidine-5-carbonitrile] displayed an IC50 of 0.028 µM.

As for `CC(F)(F)c1ccnc(N2CC[C@H](COc3nc(C4CC4)ncc3C#N)C2)c1` [Compound 32, (S)-2-cyclopropyl-4-((1-(4-(1,1-difluoroethyl)pyridin-2-yl)pyrrolidin-3-yl)methoxy)pyrimidine-5-carbonitrile], 3.29 µM corresponded to half-maximal inhibition (IC50).

Compound `N#Cc1cnc(C2CC2)nc1OC[C@H]1CCN(c2cccc3cnccc23)C1` [Compound 33, (S)-2-cyclopropyl-4-((1-(isoquinolin-5-yl)pyrrolidin-3-yl)methoxy)pyrimidine-5-carbonitrile] displayed an IC50 of 1.4 µM.

For the compound `N#Cc1cnc(C2CC2)nc1OC[C@H]1CCN(c2cccc3ncccc23)C1` [Compound 34, (S)-2-cyclopropyl-4-((1-(quinolin-5-yl)pyrrolidin-3-yl)methoxy)pyrimidine-5-carbonitrile], the IC50 stood at 2.05 µM.

With `N#Cc1ccc(N2CC[C@H](COc3nc(C4CC4)ncc3C#N)C2)cc1F` [Compound 35, (S)-4-((1-(4-cyano-3-fluorophenyl)pyrrolidin-3-yl)methoxy)-2-cyclopropylpyrimidine-5-carbonitirle], the half-inhibitory concentration (IC50) is 0.458 µM.

Regarding `N#Cc1cnc(C2CC2)nc1OC[C@H]1CCN(c2cc(F)ncc2Cl)C1` [Compound 36, (S)-4-((1-(5-chloro-2-fluoropyridin-4-yl)pyrrolidin-3-yl)methoxy)-2-cyclopropylpyrimidine-5-carbonitrile], the IC50 is 2.57 µM.

For the compound `N#Cc1cnc(C2CC2)nc1OC[C@@H]1CCN(c2cc(F)ncc2Cl)C1` [Compound 37, (R)-4-((1-(5-chloro-2-fluoropyridin-4-yl)pyrrolidin-3-yl)methoxy)-2 cyclopropylpyrimidine-5-carbonitrile], the IC50 amounted to 3.51 µM.

`COc1cc(N2CC[C@@H](COc3nc(C4CC4)ncc3C#N)C2)c(F)cn1` [Compound 38, (R)-2-cyclopropyl-4-((1-(5-fluoro-2-methoxypyridin-4-yl)pyrrolidin-3-yl)methoxy)pyrimidine-5-carbonitrile] displayed an IC50 of 2.94 µM.

As for `N#Cc1cnc(C2CC2)nc1OC[C@H]1CCN(c2csc3c(Cl)ncnc23)C1` [Compound 39, (S)-4-((1-(4-chlorothieno[3,2-d]pyrimidin-7-yl)pyrrolidin-3-yl)methoxy)-2-cyclopropylpyrimidine-5-carbonitrile], the IC50 worked out at 3.99 µM.

As for `Cc1nc(-c2ccc(N3CC[C@H](COc4nc(C5CC5)ncc4C#N)C3)cc2)co1` [Compound 40, (S)-2-cyclopropyl-4-((1-(4-(2-methyloxazol-4-yl)phenyl)pyrrolidin-3-yl)methoxy)pyrimidine-5-carbonitrile], 0.029 µM corresponded to half-maximal inhibition (IC50).

`N#Cc1cnc(C2CC2)nc1OC[C@H]1CCN(c2ncc(C(F)(F)F)cn2)C1` [Compound 42, (S)-2-cyclopropyl-4-((1-(5-(trifluoromethyl)pyrimidin-2-yl)pyrrolidin-3-yl)methoxy)pyrimidine-5-carbonitrile]: the IC50 was 0.061 µM.

`N#Cc1cnc(C2CC2)nc1OC[C@H]1CCN(c2ccc(C(F)(F)F)cn2)C1` [Compound 43, (S)-2-cyclopropyl-4-((1-(5-(trifluoromethyl)pyridin-2-yl)pyrrolidin-3-yl)methoxy)pyrimidine-5-carbonitrile] returned an IC50 of 0.04 µM.

On to `N#Cc1cnc(C2CC2)nc1OC[C@H]1CCN(c2ccc(C(F)(F)F)nc2)C1` [Compound 44, (S)-2-cyclopropyl-4-((1-(6-(trifluoromethyl)pyridin-3-yl)pyrrolidin-3-yl)methoxy)pyrimidine-5-carbonitrile], for which half-maximal inhibition (IC50) was put at 0.14 µM.

The compound `N#Cc1cnc(C2CC2)nc1OC[C@@H]1CCN(c2ccc(C(F)(F)F)nc2)C1` [Compound 45, (R)-2-cyclopropyl-4-((1-(6-(trifluoromethyl)pyridin-3-yl)pyrrolidin-3-yl)methoxy)pyrimidine-5-carbonitrile] registered a concentration for half-maximal inhibition (IC50) of 0.255 µM.

Regarding `N#Cc1cnc(C2CC2)nc1OC[C@H]1CCN(c2cc(C(F)(F)F)ccn2)C1` [Compound 46, (S)-2-cyclopropyl-4-((1-(4-(trifluoromethyl)pyridin-2-yl)pyrrolidin-3-yl)methoxy)pyrimdiine-5-carbonitrile], the half-inhibitory concentration (IC50) turned out to be 4.19 µM.

With `N#Cc1cnc(C2CC2)nc1OC[C@H]1CCN(c2ccnc(OC3CC3)c2)C1` [Compound 47, (S)-4-((1-(2-cyclopropoxypyridin-4-yl)pyrrolidin-3-yl)methoxy)-2-cyclopropylpyrimidine-5-carbonitrile], the half-inhibitory concentration (IC50) came to 3.09 µM.

In turn, `N#Cc1cnc(C2CC2)nc1NC[C@H]1CCN(c2ccc(-n3cccn3)nc2)C1` [Compound 48, (R)-4-(((1-(6-(1H-pyrazol-1-yl)pyridin-3-yl)pyrrolidin-3-yl)methyl)amino)-2-cyclopropylpyimidine-5-carbonitrile] displayed a 50% inhibitory concentration (IC50) of 0.969 µM.

Compound `CN(C[C@H]1CCN(c2ccc(-n3cccn3)nc2)C1)c1nc(C2CC2)ncc1C#N` [Compound 49, (S)-4-(((1-(6-(1H-pyrazol-1-yl)pyridin-3-yl)pyrrolidin-3-yl)methyl)(methyl)amino)-2-cyclopropylpyrimidine-5-carbonitrile] returned an IC50 of 1.87 µM.

In turn, `CC(Oc1nc(C2CC2)ncc1C#N)[C@H]1CCN(c2ncc(C(F)(F)F)cn2)C1` (stereo partly drawn) [Compound 50, 2-cyclopropyl-4-(1-((S)-1-(5-(trifluoromethyl)pyrimidin-2-yl)pyrrolidin-3-yl)ethoxy)pyrimidine-5-carbonitrile] returned an IC50 of 0.081 µM.

`N#Cc1cnc(C2CC2)nc1OCC12CC1CN(c1ncc(C(F)(F)F)cn1)C2` (stereo not drawn) [Compound 51, 2-cyclopropyl-4-((3-(5-(trifluoromethyl)pyrimidin-2-yl)-3-azabicyclo[3.1.0]hexan-1-yl)methoxy)pyrimidine-5-carbonitrile] displayed an IC50 of 0.09 µM.

`CC1(COc2nc(C3CC3)ncc2C#N)CCN(c2ncc(C(F)(F)F)cn2)C1` (stereo not drawn) [Compound 52, 2-cyclopropyl-4-((3-methyl-1-(5-(trifluoromethyl)pyrimidin-2-yl)pyrrolidin-3-yl)methoxy)pyrimidine-5-carbonitrile] gave an IC50 of 0.762 µM.

`CC1CN(c2ncc(C(F)(F)F)cn2)CC1COc1nc(C2CC2)ncc1C#N` (stereo not drawn) [Compound 53, 2-cyclopropyl-4-((4-methyl-1-(5-(trifluoromethyl)pyrimidin-2-yl)pyrrolidin-3-yl)methoxy)pyrimidine-5-carbonitrile] had a concentration for half-maximal inhibition (IC50) of 0.148 µM.

As to `N#Cc1cnc(C2CC2)nc1OCC12CC(C1)N(c1ncc(C(F)(F)F)cn1)C2` [Compound 54, 2-cyclopropyl-4-((2-(5-(trifluoromethyl)pyrimidin-2-yl)-2-azabicyclo[2.1.1]hexan-4-yl)methoxy)pyrimidine-5-carbonitrile], half-maximal inhibition (IC50) was put at 0.107 µM.

Turning to `N#Cc1cnc(C2CC2)nc1OC[C@H]1CCN(c2ccc(-n3cccn3)nc2)C1` [Compound 55, (S)-4-((1-(6-(1H-pyrazol-1-yl)pyridin-3-yl)pyrrolidin-3-yl)methoxy)-2-cyclopropylpyrimidine-5-carbonitrile], the IC50 was 0.078 µM.

In the case of `N#Cc1cnc(C2CC2)nc1OC[C@H]1CCN(c2cnc(-n3cccn3)cn2)C1` [Compound 56, (S)-4-((1-(5-(1H-pyrazol-1-yl)pyrazin-2-yl)pyrrolidin-3-yl)methoxy)-2-cyclopropylpyrimidine-5-carbonitrile], the IC50 stood at 0.161 µM.

Take `N#Cc1cnc(C2CC2)nc1OCC1CCN(c2ccc(Cl)cc2)C1` (stereo not drawn) [Compound 57, 4-((1-(4-chlorophenyl)pyrrolidin-3-yl)methoxy)-2-cyclopropylpyrimidine-5-carbonitrile]: the IC50 worked out at 0.02 µM.

For `N#Cc1cnc(C2CC2)nc1OCC1CCN(c2ccc(Cl)cc2)C1` (stereo not drawn) [Compound 58, 4-((1-(4-chlorophenyl)pyrrolidin-3-yl)methoxy)-2-cyclopropylpyrimidine-5-carbonitrile], the IC50 stood at 0.156 µM.

For the compound `N#Cc1cnc(C2CC2)nc1OCC1CCCN1c1ccccc1` (stereo not drawn) [Compound 59, 2-cyclopropyl-4-((1-phenylpyrrolidin-2-yl)methoxy)pyrimidine-5-carbonitrile], it took 0.363 µM to reach half-maximal inhibition (IC50).

Compound `N#Cc1cnc(C2CC2)nc1OC1CN(Cc2ccc(F)cc2)C1` [Compound 60, 2-cyclopropyl-4-((1-(4-fluorobenzyl)azetidin-3-yl)oxy)pyrimidine-5-carbonitrile] displayed a half-inhibitory concentration (IC50) of 3.95 µM.

A word on the IC50: it is the midpoint of a concentration-inhibition curve. Read a low IC50 as greater potency.
